What was measured:
Assay type in all cases: in vivo
[1] = tested on: barnyardgrass (Echinochloa crus-galli); test: Test A postemergence; conditions: Echinochloa crus-galli, post-emergence, 240 h, postemergence
Outline: (§1)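 Compounds were formulated in a non-phytotoxic solvent mixture with surfactant and applied as a preemergence directed soil spray after seeding, or sprayed postemergence over plants 2 to 10 cm tall at the one- to two-leaf stage. Evaluation after about 10 d compared treated with untreated controls, using a scale from 0 (no effect) to 100 (complete control).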

[2] = tested on: ryegrass, Italian (Italian ryegrass, Lolium multiflorum); test: Test A postemergence; conditions: Lolium multiflorum, post-emergence, 240 h, postemergence
Outline: as §1

[3] = tested on: Galium (catchweed bedstraw, Galium aparine); test: Test A postemergence; conditions: Galium, post-emergence, 240 h, postemergence
Outline: as §1

[4] = tested on: pigweed (Amaranthus retroflexus); test: Test A postemergence; conditions: Amaranthus retroflexus, post-emergence, 240 h, postemergence
Outline: as §1

[5] = tested on: ragweed (common ragweed, Ambrosia elatior); test: Test A postemergence; conditions: Ambrosia artemisiifolia, post-emergence, 240 h, postemergence
Outline: as §1

[6] = tested on: giant foxtail (Setaria faberii); test: Test A postemergence; conditions: Setaria faberi, post-emergence, 240 h, postemergence
Outline: as §1

[7] = tested on: wheat (Triticum aestivum); test: Test A postemergence; conditions: Triticum aestivum, post-emergence, 240 h, postemergence
Outline: as §1

corn (Zea mays) = test: Test A postemergence; conditions: Zea mays, post-emergence, 240 h, postemergence
Outline: as §1

Kochia (Kochia scoparia) [8] = test: Test A postemergence; conditions: Bassia scoparia, post-emergence, 240 h, postemergence
Outline: as §1

[9] = tested on: barnyardgrass (Echinochloa crus-galli); test: Test A preemergence; conditions: Echinochloa crus-galli, pre-emergence, 240 h, preemergence, 0 to 100 scale where 0 is no effect and 100 is complete control, read-out: Barnyardgrass plant response rating
Outline: as §1

[10] = tested on: ryegrass, Italian (Italian ryegrass, Lolium multiflorum); test: Test A preemergence; conditions: Lolium multiflorum, pre-emergence, 240 h, preemergence, 0 to 100 scale where 0 is no effect and 100 is complete control, read-out: Ryegrass, Italian plant response rating
Outline: as §1

[11] = tested on: pigweed (Amaranthus retroflexus); test: Test A preemergence; conditions: Amaranthus retroflexus, pre-emergence, 240 h, preemergence, 0 to 100 scale where 0 is no effect and 100 is complete control, read-out: Pigweed plant response rating
[12] = tested on: ragweed (common ragweed, Ambrosia elatior); test: Test A preemergence; conditions: Ambrosia artemisiifolia, pre-emergence, 240 h, preemergence, 0 to 100 scale where 0 is no effect and 100 is complete control, read-out: Ragweed plant response rating
Outline: as §1

[13] = tested on: giant foxtail (Setaria faberii); test: Test A preemergence; conditions: Setaria faberi, pre-emergence, 240 h, preemergence, 0 to 100 scale where 0 is no effect and 100 is complete control, read-out: Foxtail, Giant plant response rating
Outline: as §1

Kochia (Kochia scoparia) [14] = test: Test A preemergence; conditions: Bassia scoparia, pre-emergence, 240 h, preemergence, 0 to 100 scale where 0 is no effect and 100 is complete control, read-out: Kochia plant response rating
Outline: as §1

[15] = 125 g ai/ha, visual injury rating, approximately 10 d

Compound: CN1C[C@H](c2ccc(C#N)cc2)[C@@H](C(=O)Nc2cccc(F)c2F)C1=O [Compound 1208]
- pest or weed control at 125 g/ha ([1]; 125 g ai/ha, visual injury vs untreated controls after approx. 10 d, 0 = no effect, 100 = complete control, read-out: Barnyardgrass plant response rating (0 to 100 scale)): 100%
- pest or weed control at 500 g/ha ([1]; 500 g ai/ha, 0 to 100 scale, 0 is no effect, 100 is complete control, read-out: Barnyardgrass plant response rating): 100%
- pest or weed control at 125 g/ha ([2]; 125 g ai/ha, visual injury vs untreated controls after approx. 10 d, 0 = no effect, 100 = complete control, read-out: Ryegrass, Italian plant response rating (0 to 100 scale)): 0%
- pest or weed control at 500 g/ha ([2]; 500 g ai/ha, 0 to 100 scale, 0 is no effect, 100 is complete control, read-out: Ryegrass, Italian plant response rating): 0%
- pest or weed control at 125 g/ha ([3]; 125 g ai/ha, visual injury vs untreated controls after approx. 10 d, 0 = no effect, 100 = complete control, read-out: Galium plant response rating (0 to 100 scale)): 40%
- pest or weed control at 500 g/ha ([3]; 500 g ai/ha, 0 to 100 scale, 0 is no effect, 100 is complete control, read-out: Galium plant response rating): 50%
- pest or weed control at 125 g/ha ([4]; 125 g ai/ha, visual injury vs untreated controls after approx. 10 d, 0 = no effect, 100 = complete control, read-out: Pigweed plant response rating (0 to 100 scale)): 30%
- pest or weed control at 500 g/ha ([4]; 500 g ai/ha, 0 to 100 scale, 0 is no effect, 100 is complete control, read-out: Pigweed plant response rating): 60%
- pest or weed control at 125 g/ha ([5]; 125 g ai/ha, visual injury vs untreated controls after approx. 10 d, 0 = no effect, 100 = complete control, read-out: Ragweed plant response rating (0 to 100 scale)): 0%
- pest or weed control at 500 g/ha ([5]; 500 g ai/ha, 0 to 100 scale, 0 is no effect, 100 is complete control, read-out: Ragweed plant response rating): 40%
- pest or weed control at 125 g/ha ([6]; 125 g ai/ha, visual injury vs untreated controls after approx. 10 d, 0 = no effect, 100 = complete control, read-out: Foxtail, Giant plant response rating (0 to 100 scale)): 70%
- pest or weed control at 500 g/ha ([6]; 500 g ai/ha, 0 to 100 scale, 0 is no effect, 100 is complete control, read-out: Foxtail, Giant plant response rating): 90%
- plant injury at 125 g/ha ([7]; 125 g ai/ha, visual injury vs untreated controls after approx. 10 d, 0 = no effect, 100 = complete control, read-out: Wheat plant response rating (0 to 100 scale)): 0%
- plant injury at 500 g/ha ([7]; 500 g ai/ha, 0 to 100 scale, 0 is no effect, 100 is complete control, read-out: Wheat plant response rating): 20%
- plant injury at 125 g/ha (corn (Zea mays); 125 g ai/ha, visual injury vs untreated controls after approx. 10 d, 0 = no effect, 100 = complete control, read-out: Corn plant response rating (0 to 100 scale)): 20%
- plant injury at 500 g/ha (corn (Zea mays); 500 g ai/ha, 0 to 100 scale, 0 is no effect, 100 is complete control, read-out: Corn plant response rating): 50%
- pest or weed control at 125 g/ha (Kochia (Kochia scoparia) [8]; 125 g ai/ha, visual injury vs untreated controls after approx. 10 d, 0 = no effect, 100 = complete control, read-out: Kochia plant response rating (0 to 100 scale)): 70%
- pest or weed control at 500 g/ha (Kochia (Kochia scoparia) [8]; 500 g ai/ha, 0 to 100 scale, 0 is no effect, 100 is complete control, read-out: Kochia plant response rating): 70%
- pest or weed control at 125 g/ha [9, 15]: 90%
- pest or weed control at 500 g/ha ([9]; 500 g ai/ha): 100%
- pest or weed control at 125 g/ha [10, 15]: 20%
- pest or weed control at 500 g/ha ([10]; 500 g ai/ha): 70%
- pest or weed control at 125 g/ha [11, 15]: 60%
- pest or weed control at 500 g/ha ([11]; 500 g ai/ha): 90%
- pest or weed control at 125 g/ha [12, 15]: 40%
- pest or weed control at 500 g/ha ([12]; 500 g ai/ha): 100%
- pest or weed control at 125 g/ha [13, 15]: 100%
- pest or weed control at 500 g/ha ([13]; 500 g ai/ha): 100%
- pest or weed control at 125 g/ha (Kochia (Kochia scoparia) [14]; [15]): 70%
- pest or weed control at 500 g/ha (Kochia (Kochia scoparia) [14]; 500 g ai/ha): 100%
